Measurements from article PMC6314390 (The Journal of General Physiology, 2019).

How the values were obtained:
[1] = biological target: T1, cardiac troponin C (cTnC) (Homo sapiens, UniProt P63316, C35S/C84S); test: 2D [1H, […]]-HSQC NMR titration; type: binding
[2] = biological target: T1, cardiac troponin C (cTnC); test: 2D [1H, […]]-HSQC NMR titration; type: binding; remark: listed apart in the source

Row | Kd [2] | SMILES | 2D [1H,15N]-HSQC NMR titration [1]
1 |  | CC(C)COCC(CN(Cc1ccccc1)c1ccccc1)N1CCCC1 (centres unmarked) [bepridil] | As bepridil is titrated into cTnC, NMR signals corresponding to the cNTnC domain move as the conformational equilibrium shifts
2 | 6 ± 1 µM | Clc1cccc(Nc2ccccc2)c1 [3-Cl-DPA, 3-Chlorodiphenylamine] | 
